Results as given in patent US20070275968A1, “Substituted Biphenyl Derivative” (priority 2004, published 2007).

Compound	melting point
Cc1cccc(-c2[nH]c(C(C)C)nc2-c2cccc(-n3ccnc3)c2)n1 [Example 90, 2-{4-[3-(1H-Imidazol-1-yl)phenyl]-2-isopropyl-1H-imidazol-5-yl}-6-methylpyridine]	158 to 161 °C
Cc1cccc(-c2[nH]c(C(C)C)nc2-c2cccc(-c3ccoc3)c2)n1 [Example 21, 2-{4-[3-(3-Furyl)phenyl]-2-isopropyl-1H-imidazol-5-yl}-6-methylpyridine]	74 to 78 °C
Cc1cccc(-c2n[nH]cc2-c2ccc(F)c(-c3cn4c(n3)[S+]([O-])CC4)c2)n1 (centres unmarked) [Example 211, 6-{2-Fluoro-5-[3-(6-methylpyridin-2-yl)-1H-pyrazol-4-yl]phenyl}-2,3-dihydroimidazo[2,1-b][1,3]thiazole 1-oxide]	140 to 144 °C
Cc1cccc(-c2n[nH]cc2-c2ccc(F)c(-c3cnn(CCN4CCOCC4)c3)c2)n1 [Example 175, 4-[2-(4-{2-Fluoro-5-[3-(6-methylpyridin-2-yl)-1H-pyrazol-4-yl]phenyl}-1H-pyrazol-1-yl)ethyl]morpholine]	124 °C
Cc1cccc(-c2nc(C(C)C)[nH]c2-c2cccc(-c3ccc(C(=O)N4CCS(=O)(=O)CC4)cc3)c2)n1 [Example 57, 4-({3′-[2-Isopropyl-4-(6-methylpyridin-2-yl)-1H-imidazol-5-yl]-1,1′-biphenyl-4-yl}carbonyl)thiomorpholine 1,1-dioxide]	141 to 145 °C
Cc1cccc(-c2n[nH]cc2-c2ccc(F)c(-c3c[nH]c(CC(C)(C)O)n3)c2)n1 [Example 210, 1-(4-{2-Fluoro-5-[3-(6-methylpyridin-2-yl)-1H-pyrazol-4-yl]phenyl}-1H-imidazol-2-yl)-2-methylpropan-2-ol]	136 to 140 °C
Cc1cccc(-c2n[nH]cc2-c2ccc(F)c(-c3ccc(C(C)(O)CF)cn3)c2)n1 (centres unmarked) [Example 163, 1-Fluoro-2-(6-{2-fluoro-5-[3-(6-methylpyridin-2-yl)-1H-pyrazol-4-yl]phenyl}pyridin-3-yl)propan-2-ol]	174 to 176 °C
Cc1cccc(-c2[nH]c(C(C)C)nc2-c2cccc(-c3ccc(N)cn3)c2)n1 [Example 76, 6-{3-[2-Isopropyl-5-(6-methylpyridin-2-yl)-1H-imidazol-4-yl]phenyl}pyridine-3-amine]	119 to 124 °C
Cn1cc(-c2cc(-c3c[nH]nc3-c3ccccn3)ccc2F)cn1 [Example 201, 2-{4-[4-Fluoro-3-(1-methyl-1H-pyrazol-4-yl)phenyl]-1H-pyrazol-3-yl}pyridine]	134 to 136 °C
NS(=O)(=O)c1ccc(-c2cc(-c3c[nH]nc3-c3cccc(C4CC4)n3)ccc2F)cc1 [Example 204, 5′-[3-(6-Cyclopropylpyridin-2-yl)-1H-pyrazol-4-yl]-2′-fluoro-1,1′-biphenyl-4-sulfonamide]	225 to 226 °C
Cc1cccc(-c2[nH]c(C3CC3)nc2-c2cccc(-c3ccc(C(=O)NC4CCOCC4)cc3)c2)n1 [Example 46, N-(Tetrahydropyran-4-yl)-4-{3-[2-cyclopropyl-5-(6-methylpyridin-2-yl)-1H-imidazol-4-yl]phenyl}benzamide]	127 to 128 °C
Cc1cccc(-c2[nH]c(C(C)C)nc2-c2cccc(-c3ccc(C(=O)NC4CCOCC4)cc3)c2)n1 [Example 44, N-(Tetrahydropyran-4-yl)-4-{3-[2-isopropyl-5-(6-methylpyridin-2-yl)-1H-imidazol-4-yl]-phenyl}benzamide]	140 °C
Cc1cccc(-c2n[nH]cc2-c2ccc(F)c(-c3ncc(C(C)(C)O)cn3)c2)n1 [Example 183, 2-(2-{2-Fluoro-5-[3-(6-methylpyridin-2-yl)-1H-pyrazol-4-yl]phenyl}pyrimidin-5-yl)propan-2-ol]	162 °C
Cc1cccc(-c2[nH]c(C(C)C)nc2-c2cccc(-c3cccnc3)c2)n1 [Example 11, 2-[2-Isopropyl-4-(3-pyridin-3-ylphenyl)-1H-imidazol-5-yl]-6-methylpyridine]	74 to 77 °C
Cc1cccc(-c2[nH]c(C(C)C)nc2-c2cccc(-c3ccccn3)c2)n1 [Example 43, 2-[2-Isopropyl-4-(3-pyridin-2-ylphenyl)-1H-imidazol-5-yl]-6-methylpyridine]	97 to 100 °C

More lines, now with the values ahead:

melting point	Compound
70 to 72 °C	Cc1cccc(-c2[nH]c(C(C)C)nc2-c2cccc(-c3ccc(F)cc3F)c2)n1 [Example 9, 2-[4-(2′,4′-Difluoro-1,1′-biphenyl-3-yl)-2-isopropyl-1H-imidazol-5-yl]-6-methylpyridine]
108 to 112 °C	Cc1cccc(-c2[nH]c(C(C)C)nc2-c2cccc(-c3cccc(NS(C)(=O)=O)c3)c2)n1 [Example 19, N-{3′-[2-Isopropyl-5-(6-methylpyridin-2-yl)-1H-imidazol-4-yl]-1,1′-biphenyl-3-yl}methanesulfonamide]
128 to 130 °C	Cc1cccc(-c2[nH]c(C(C)C)nc2-c2cccc(-c3ccc(C)[nH]3)c2)n1 [Example 69, 2-{2-Isopropyl-4-[3-(5-methyl-1H-pyrrol-2-yl)phenyl]-1H-imidazol-5-yl}-6-methylpyridine]
184 to 186 °C	Cc1cccc(-c2[nH]c(C(C)C)nc2-c2ccc(F)c(-c3nc[nH]n3)c2)n1 [Example 133, 2-{4-[4-Fluoro-3-(1H-1,2,4-triazol-3-yl)phenyl]-2-isopropyl-1H-imidazol-5-yl}-6-methylpyridine]
246 to 248 °C	Cc1cccc(-c2[nH]c(C(C)C)nc2-c2cccc(-c3ccc(S(N)(=O)=O)cc3F)c2)n1 [Example 75, 2-Fluoro-3′-[2-isopropyl-5-(6-methylpyridin-2-yl)-1H-imidazol-4-yl]-1,1′-biphenyl-4-sulfonamide]
140 to 145 °C	CC(=O)Nc1ccc(-c2cccc(-c3nc(C(C)C)[nH]c3-c3cccc(C)n3)c2)cc1 [Example 32, N-{3′-[2-Isopropyl-5-(6-methylpyridin-2-yl)-1H-imidazol-4-yl]-1,1′-biphenyl-4-yl}acetamide]
113 to 115 °C	Cc1cccc(-c2[nH]c(C(C)C)nc2-c2ccc(F)c(-c3ccc(S(C)(=O)=O)cc3)c2)n1 [Example 61, 2-{4-[6-Fluoro-4′-(methylsulfonyl)-1,1′-biphenyl-3-yl]-2-isopropyl-1H-imidazol-5-yl}-6-methylpyridine]
91 to 93 °C	Cc1cccc(-c2[nH]c(C(C)C)nc2-c2cccc(-c3ccc(C(F)(F)F)cc3)c2)n1 [Example 5, 2-{2-Isopropyl-4-[4′-(trifluoromethyl)-1,1′-biphenyl-3-yl]-1H-imidazol-5-yl}-6-methylpyridine]
145 °C	Cc1cccc(-c2[nH]c(C(C)C)nc2-c2ccc(F)c(-c3ccc(NC(=O)NC4CCN(C)CC4)cc3)c2)n1 [Example 95, N-{2′-Fluoro-5′-[2-isopropyl-5-(6-methylpyridin-2-yl)-1H-imidazol-4-yl]-1,1′-biphenyl-4-yl}-N′-(1-methylpiperidin-4-yl)urea]
100 to 102 °C	Cc1cccc(-c2n[nH]cc2-c2ccc(F)c(-c3ccc(S(C)(=O)=O)cc3)c2)n1 [Example 191, 2-{4-[6-Fluoro-4′-(methylsulfonyl)-1,1′-biphenyl-3-yl]-1H-pyrazol-3-yl}-6-methylpyridine]
72 to 74 °C	COc1ccc(-c2cccc(-c3nc(C(C)C)[nH]c3-c3cccc(C)n3)c2)cn1 [Example 13, 5-{3-[2-Isopropyl-5-(6-methylpyridin-2-yl)-1H-imidazol-4-yl]phenyl}-2-methoxypyridine]
123 to 135 °C	CCS(=O)(=O)Nc1ccc(-c2cccc(-c3nc(C(C)C)[nH]c3-c3cccc(C)n3)c2)cc1 [Example 30, N-{3′-[2-Isopropyl-5-(6-methylpyridin-2-yl)-1H-imidazol-4-yl]-1,1′-biphenyl-4-yl}ethanesulfonamide]
93 to 96 °C	Cc1cccc(-c2[nH]c(C(C)C)nc2-c2cccc(-c3ccc(S(=O)(=O)N(C)C)cc3)c2)n1 [Example 39, 3′-[2-Isopropyl-5-(6-methylpyridin-2-yl)-1H-imidazol-4-yl]-N,N-dimethyl-1,1′-biphenyl-4-sulfonamide]
80 to 82 °C	Cc1cccc(-c2n[nH]cc2-c2ccc(F)c(-c3ccc(S(=O)(=O)C(F)F)cc3)c2)n1 [Example 171, 2-(4-{4′-[(Difluoromethyl)sulfonyl]-6-fluoro-1,1′-biphenyl-3-yl}-1H-pyrazol-3-yl)-6-methylpyridine]
105 to 108 °C	Cc1cccc(-c2[nH]c(C(C)C)nc2-c2ccc(F)c(-c3ccc(S(C)(=O)=O)cn3)c2)n1 [Example 124, 2-{2-Fluoro-5-[2-isopropyl-5-(6-methylpyridin-2-yl)-1H-imidazol-4-yl]phenyl}-5-(methylsulfonyl)pyridine]
80 to 82 °C	CSc1ccc(-c2cccc(-c3nc(C(C)C)[nH]c3-c3cccc(C)n3)c2)cc1 [Example 16, 2-{2-Isopropyl-4-[4′-(methylthio)-1,1′-biphenyl-3-yl]-1H-imidazol-5-yl}-6-methylpyridine]
123 to 135 °C	Cc1cccc(-c2[nH]c(C(C)C)nc2-c2cccc(-c3ccc(NC(=O)C(C)(C)O)cc3)c2)n1 [Example 34, 2-Hydroxy-N-{3′-[2-isopropyl-5-(6-methylpyridin-2-yl)-1H-imidazol-4-yl]-1,1′-biphenyl-4-yl}-2-methylpropanamide]
110 to 116 °C	Cc1cccc(-c2[nH]c(C(C)C)nc2-c2cccc(-c3ccc(S(=O)(=O)N4CCN(C)CC4)cc3)c2)n1 [Example 41, 1-({3′-[2-Isopropyl-5-(6-methylpyridin-2-yl)-1H-imidazol-4-yl]-1,1′-biphenyl-4-yl}sulfonyl)-4-methylpiperazine]
153 to 155 °C	Cc1cccc(-c2[nH]c(C(C)C)nc2-c2ccc(F)c(-c3ccc(C(=O)NN4CCOCC4)cc3)c2)n1 [Example 66, N-(Morpholin-4-yl)-4-{2-fluoro-5-[2-isopropyl-5-(6-methylpyridin-2-yl)-1H-imidazol-4-yl]phenyl}benzamide]
135 to 145 °C	Cc1cccc(-c2[nH]c(C(C)C)nc2-c2cccc(-c3ccc(NS(=O)(=O)C4CC4)cc3)c2)n1 [Example 31, N-{3′-[2-Isopropyl-5-(6-methylpyridin-2-yl)-1H-imidazol-4-yl]-1,1′-biphenyl-4-yl}cyclopropylsulfonamide]
